Data on 5 compounds can be found in article PMC9544108 (Chemmedchem, 2022).

Series [1] relates to HT-29 cells. The note with it: HT-29, 0.02-1.0 mM, 23 h, crystal violet, no Pb.
Procedure: We then tested the effect of 8 and 9 alone on cell viability compared with the two benchmark drugs.
96-well plates were prepared such that every well contained 10,000 HT-29 cells in 100 µL
medium, and the cells were allowed to adhere for 24 h.
To all wells but the positive control wells, 10 µL of each solution of the examined peptides (0.24,
and 1.0 mM. To the positive control wells, 10 µL of H 2O were added. Each condition was
performed in triplicates. The plates were incubated at 37 °C, and 5% CO2 for 23 h, after which the
medium was removed, the wells were washed with H2O, and 50 µL of crystal violet solution[10]
(500 mg crystal violet powder in 20 mL CH3OH and 80 mL H2O) were added to each well. The
plates were gently shaken (50 rpm) for 20 min. The plates were then washed with H 2O until no
more unbound dye was observed and allowed to dry overnight. 100 µL of CH3OH were added to
each well, and the plates were gently shaken (50 rpm) for 20 min, after which their absorbance
The toxicity of each concentration of a peptide was calculated according to Equation S5:
𝑇𝑜𝑥𝑖𝑐𝑖𝑡𝑦% = 𝐴[𝑃𝑒𝑝𝑋]−𝐴[𝑏𝑙𝑎𝑛𝑘] × 100% (S5)
A[PepX] – absorbance of well in the presence of X mM of peptide
A[POS] – absorbance of well that contains no peptides
Series [2] deals with Pb-poisoned HT-29 cells. As to the kind of experiment: recovery assay of Pb-poisoned cells (crystal violet). In kind it is cell-based, human. The note with it: HT-29, Pb(NO3)2 0.2 mM, further 23 h; for recovery of Pb-poisoned cells, in words: compound 0.02-1 mM added 1 h later; for viability of Pb-poisoned cells relative to the negative control (recovery): peptide added 1 h later, up to 1 mM (5 equiv.), at least 3 independent experiments. Here is the method:
Human HT‐29 cells were used to investigate the peptides′ detoxification capabilities.[17, 18, 22] Adhered cells were poisoned with Pb(NO3)2 (200 μM) and 1 h later treated with various concentrations of peptides[28] and of the benchmark drugs, ranging from 20 μM to 1 mM that are equal to 0.1–5 equivalents compared with the Pb(II) concentration. After an incubation of 23 h, the cells were washed and quantified with the crystal violet assay.[22, 29] Each experiment included both positive and negative controls, which were either cells left untreated with both metal ions and peptides or only poisoned with Pb(NO3)2, respectively. Each dataset was then compared to the negative control to report the peptide recovery abilities (Figures 3A–B and S2).
LCMS (ESI) Rt = 0.6 min, observed as [M+H]+
HT-29 cells were chosen as a representative human cell-line due to their high Pb sensitivity and as their medium, RPMI-1640, is compatible with Pb(II), inhibiting metal precipitation.
HT-29 cells were grown in 25 mM HEPES RPMI -1640 medium, supplemented with 1% L- […]
37 °C and 5% CO2. 96-well plates were prepared such that every well contain ed 10,000 cells in […]
concentration 0.2 mM). 10 µL of H2O were added to the positive control wells. 60 min after the […]
(which are 0.1, 0.25, 0.5, 1, 2 and 5 equivalents, respectively). To the positive control wells containing no metal and the negative control wells containing metal but no peptides, 10 µL of H2O were added, respectively. Each condition was performed in triplicates. […]
gently shaken (50 rpm) for 20 min. […]
dye was observed and allowed to dry overnight.
Recovery% = A[PepX]−A[blank] × 100% (S4)
A[blank] – absorbance of an empty well
Each experiment was performed on three independent repeats. Values are mean ± SD. […]
control for the recovery). Values are mean ± SD of at least 3 repeats. […]
and 1.0 mM. […] Each condition was […]

Series [3] is classed as in vitro ADME. The settings on record: human blood serum (Sigma Aldrich), 100 µM peptide, 37 °C, aliquots from 0 min up to 48 h, precipitation with CH3CN:H2O 1:1, LCMS. Here is the method:
(§1) To examine this, we used the Ellman's test,[43] where 8 was incubated in H2O, and the Ellman's reagent was added at given time points (Figure S9).[22] While 8 was started to be slightly oxidized within the first 2 h and was steadily forming disulfide bonds, after 24 h, roughly 40 % of the thiols were still reduced, enabling metal coordination within the experimental time frame of our in vitro study.
9 Stability in human blood serum
A freshly prepared solution of 8 (in H2O) was added to the human blood serum (HBS, purchased from Sigma Aldrich) to reach a final peptide concentration of 100 µM and a volume of 1 mL.
Samples were pipetted carefully up and down three times and incubated at 37 °C. Aliquots (50 µL) were taken periodically, starting from the addition of the serum (0 min) and continuing after 1 h up to 48 h. Aliquots were poured into a mixture of CH3CN:H2O (1:1; 200 µL) to precipitate the HBS proteins. The samples were cooled on ice for 30 min and centrifuged at 4’4 00 rpm for 10 min. The supernatant was analyzed by LCMS.
Figure S10. Stability of 8 in human blood serum.

Series [4] has as its system HT-29 cells. The series is described as follows: DCF assay, ROS production. Type of series: cell-based, human. The note with it: HT-29, peptide 1 mM, with or without Pb(II) 0.2 mM. How it is done:
ROS production determination in the presence of Pb(II) ions […]
the cells were allowed to adhere overnight.
To all wells but the positive control wells, 5 µL of 2.2 mM Pb(NO3)2 were added (final concentration 0.2 mM). 5 µL of H2O were added to the positive control wells. 1 h after, 5 µL of 8 […]
control wells containing no metal and the negative control wel ls containing metal but no peptide, […]
removed, the wells were washed with PBS , and 50 µL of PBS were added to each well. 6.75 µL of 2',7'-dichlorodihydrofluorescein diacetate (H 2DCF-DA) (2.1 mM in DMSO) were added (final concentration 0.25 mM) and gently mixed. The plates were incubated for an additional 1 h.
Fluorescence was then measured at an excitation of 490 nm and an emission of 520 nm.
ROS production determination in the absence of Pb(II) ions […]
concentrations of 1 mM. To the positive control well s, 5 µL of H2O were added.
The plates were incu bated at 37 °C, and 5% CO2 for additional 23 h, after which the medium was […]

The nature of series [5]: Ellman's test, oxidation of thiols to disulfide. Type of series: physicochemical. The note with it: 8 100 µM in H2O with 10% 1 M Tris buffer pH 8.0, RT, DTNB 300 µM, absorbance 412 nm. Here is the method:
as §1
Calibration curve: to a 96-well plate with freshly-prepared solutions of Ac-Cys-OMe (12.5-200 µM) in H2O supplemented with 10% 1 M Tris buffer pH 8.0, a fresh solution of Ellman’s reagent (5,5'-dithiobis-(2-nitrobenzoic acid; DTNB; final concentration of 300 µM in H2O supplemented with 12.5 mM sodium acetate) was added. The absorbance of each well at 412 nm was then determined. The average and standard deviation within six wells containing the same AA concentration were calculated and linearly plotted using Origin software .
Seven 96-well plates were prepared identically with fresh solutions of 8 (100 µM) in H2O supplemented with 10% 1 M Tris buffer pH 8.0, where each condition is replicated in 3 wells. […] The absorbance of each well at 412 nm was then determined , and the concentration of free thiol per well was calculated according to the cal ibration curve. For each time frame, the average and standard deviation were calculated. […]
Background: In Ellman's method for cholinesterases, released thiocholine reacts with DTNB.

Series [6] concerns Pb-poisoned HT-29 cells. As to the kind of experiment: ICP-MS Pb content of cells and supernatant (mode of action). The settings on record: for SN/C, ratio of Pb content in ppb in supernatants and cells: ICP-MS, three independent experiments. Type of series: cell-based, human. Here is the method:
In order to determine the mode of action of 8, by which it enables to achieve a high recovery of Pb‐poisoned HT‐29 cells, inductively coupled plasma mass spectrometry (ICP‐MS) was employed to determine the Pb content of the Pb‐poisoned cells and their respective supernatant. First, HT‐29 cells were poisoned with Pb(NO3)2 (0.2 mM) and the Pb content in the cells and in the medium was determined after 1 and 24 h.[22] The measurement after 1 h was performed to assess the Pb distribution at the time of peptide addition during the recovery experiment and the one after 24 h to reveal the distribution resulting without intervention. At both times, the fraction of intracellular Pb was low and most of the toxic metal was in the medium (Table S10). […] Next, we added 8 to the cells before and after poisoning them with Pb(II) ions to assess whether 8 prevents Pb(II) ions from entering the cells, expels them from the cells or transforms Pb(II) into a non‐toxic complex locally. […] Since treating Pb‐poisoned cells with 8 enables higher viability, despite the fact that their relative intracellular Pb content is elevated, we hypothesize that Pb crosses the cellular membrane from outside as a membrane permeable, non‐toxic Pb(II)‐8 complex.
Cells with Pb(II) ions only were analyzed after 1 or 24 h incubation with the metal salt as reference values:
To all wells, 10 µL of 2.2 mM Pb(NO3)2 were added (final concentration 0.2 mM) and the cells were incubated at 37 °C, and 5% CO2 for 1 h, after which samples were prepared for analysis by […]
Cells treated with 8 were analyzed in two sets that differed in the order of peptide and metal salt […]
After respective incubation times, the supernatants were homogenized by gently pipetting up and down and 50 µL were transferred and digested with 100 µL HNO3 (70%) for 1 h in a 15 mL tube. […] Pb in the supernatant was then quantified using ICP-MS.
Since the cells are adherent, residual supernatant was removed from each well and the cells were washed with RPMI (3x200 µL). […] Pb in the cells was then quantified using ICP-MS. […]

Numbered stars: 1 amine (or outer) side, 2 acyl side, 3 side chain; on linkers, the order of the positions; unused ones are H or OH. Square brackets hold non-standard residues; d marks the D form. Peptide text beside a SMILES is read from it. γGlu = O=C(O)[C@H](CCC(=O)[*:2])N[*:1]; βAsp = O=C(O)[C@H](CC(=O)[*:2])N[*:1]; Cya = N[C@@H](CS(=O)(=O)O)C(=O)O A value given as a limit tells only on which side of the number the result lay.

As to `O=C(O)CN(CCN(CC(=O)O)CC(=O)O)CC(=O)O` [EDTA, ethylenediaminetetraacetic acid, reference compound], the “effect of compound alone on cell viability, in words” value (shortened to “effect of compound alone”) with HT-29 cells [1] is given as “slight toxicity”.
`C[C@@H]1NC(=O)CNC(=O)[C@H](CS)NC(=O)CC[C@@H](C(=O)O)NC(=O)[C@H](C)NC(=O)CNC(=O)[C@H](CS)NC(=O)CC[C@@H](C(=O)O)NC1=O` [peptide 2] (cyclo(A[γGlu]CGA[γGlu]CG)): the “recovery of Pb-poisoned cells, in words” value in the series on Pb-poisoned HT-29 cells [2] is recorded as “enhanced viability of cells treated with 1 mM of 2 compared with lin2”.
On the same count and under the same terms, the entry for `C[C@@H]1NC(=O)CNC(=O)[C@H](CS)NC(=O)C[C@@H](C(=O)O)NC(=O)[C@H](C)NC(=O)CNC(=O)[C@H](CS)NC(=O)C[C@@H](C(=O)O)NC1=O` [peptide 5] (cyclo(A[βAsp]CGA[βAsp]CG)) is “least active one”.
With `NC(=O)C[C@@H]1NC(=O)CNC(=O)[C@H](CS)NC(=O)CC[C@@H](C(=O)O)NC(=O)[C@H](CC(N)=O)NC(=O)CNC(=O)[C@H](CS)NC(=O)CC[C@@H](C(=O)O)NC1=O` [peptide 8] (cyclo(CGN[γGlu]CGN[γGlu])), the “viability of Pb-poisoned cells relative to the negative control (recovery)” value in the series on Pb-poisoned HT-29 cells [2] is listed as “approximately 2.5 times”. In addition, the “time stable in human blood serum” value in series [3] is reported as “at least 48 h”. For the same compound, the “effect of compound alone” value in the series on HT-29 cells [1] is on record as “positively affect cell viability”. Besides, in the series with HT-29 cells [4], the “oxidative stress (ROS) compared with untreated cells, in words” value is recorded as “decreased the oxidative stress compared to untreated cells”. Further, the “time within which oxidation started” value in series [5] is at most 2 h. The thiols still reduced result in series [5] (after 24 h, 3 wells) was “roughly 40%”. In addition, in the series with Pb-poisoned HT-29 cells [6] (8 added pre- or post-poisoning), the “supernatant-to-cells ratio of Pb compared with cells not treated with peptide, in words” value was “reduced by approximately half”. Moreover, the “SN/C, ratio of Pb content in ppb in supernatants and cells” value was 56.3 ± 27.5 in the series with Pb-poisoned HT-29 cells [6] (condition 3: HT-29 poisoned with 0.2 mM Pb(NO3)2 1 h, then 1 mM 8, further 23 h) and 43.3 ± 10.23 in the series on Pb-poisoned HT-29 cells [6] (condition 4: HT-29 given 1 mM 8 for 1 h, then 0.2 mM Pb(NO3)2, further 23 h).
With `O=C1CC[C@@H](C(=O)O)NC(=O)[C@H](CS(=O)(=O)O)NC(=O)CNC(=O)[C@H](CS)NC(=O)CC[C@@H](C(=O)O)NC(=O)[C@H](CS(=O)(=O)O)NC(=O)CNC(=O)[C@H](CS)N1` [peptide 9] (cyclo(CG[Cya][γGlu]CG[Cya][γGlu])), the “viability of Pb-poisoned cells relative to the negative control (recovery)” value in the series on Pb-poisoned HT-29 cells [2] was “approximately 2.5 times”. In the series with HT-29 cells [1], the “effect of compound alone” value is recorded as “no toxicity at all”.
